Source: patent publication US20130090385A1, “NOVEL SPECIFIC CASPASE-10 INHIBITORS” (MERCK PATENT GESELLSCHAFT MIT BESCHRANKTER HAFTUNG, priority 2005, published 2013)
Like-named read-outs stand apart in the source and are kept apart here. Where a SMILES comes first, the peptide text is derived from it. The star is where a group is joined. Cbz = O=C(OCc1ccccc1)*; CH2F = FC*

What was measured:
[1] = target: T1, Recombinant human caspase-2 (Homo sapiens, UniProt P42575); test: delayed-time fluorescence caspase inhibition test, caspase-2
T1 sequence (P42575 1-452): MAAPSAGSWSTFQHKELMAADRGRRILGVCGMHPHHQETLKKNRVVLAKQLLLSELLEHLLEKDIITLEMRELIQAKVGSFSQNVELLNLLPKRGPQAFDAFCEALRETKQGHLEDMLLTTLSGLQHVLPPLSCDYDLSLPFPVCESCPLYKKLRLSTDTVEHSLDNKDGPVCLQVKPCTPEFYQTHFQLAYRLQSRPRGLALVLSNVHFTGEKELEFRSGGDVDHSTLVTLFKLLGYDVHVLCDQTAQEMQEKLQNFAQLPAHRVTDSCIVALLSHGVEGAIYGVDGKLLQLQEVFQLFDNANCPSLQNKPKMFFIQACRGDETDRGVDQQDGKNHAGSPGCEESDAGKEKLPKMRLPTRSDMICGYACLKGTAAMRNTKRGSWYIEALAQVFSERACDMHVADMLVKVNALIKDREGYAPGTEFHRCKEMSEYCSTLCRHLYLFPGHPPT
Experimental: (§1) The substrate used is a tetrapeptide specific to this caspase, having at one of its ends a fluorescent europium marker (W1284) and at the other end a europium chelate fluorescence quencher (QSy-7): Eu-W1284-CIETDK-QSy-7.
(§2) The caspase cleaves the substrate, releasing the quencher. Thus, by excitation at 340 nm, the signal emitted by the fluorescence of the europium is read by WALLAC Victor^2 reader at 615 nm.
(§3) They are ready for use or may be divided into aliquots and stored at −80° C.. […] 20 μl of this solution are distributed per well of the assay plate. […] The assay is performed with 1 U of enzyme per well, by distributing 20 μl of the diluted solution per well. • The standard inhibitors: The standard inhibitors are dissolved in DMSO to a concentration of 10 mM. They are tested at IC20 and at IC50 on the caspases they inhibit (see following table).
(§4) They are then distributed in the wells using this solution to reach the final concentration of IC20 or IC50, i.e. 3 μl in 33 μl of final reaction volume (dilution 1/11). Thus, the final concentration of DMSO in the well is 0.3% (v/v) final. […] An intermediate dilution (1/6.6) is prepared in DMSO by diluting 10 μl of the concentrated solution in 66 μl of DMSO (final volume). […] The inhibitors are then distributed in the wells to reach the final screening concentration (10 μM), i.e. 3 μl in 33 μl of final reaction volume (dilution 1/11) and a final concentration of DMSO of 0.3% (v/v) in the well. • Protocol:
(§5) The incubation takes place for 3 hours 30 minutes at room temperature before reading the fluorescence in delayed time on the WALLAC Victor^2 reader with the filters corresponding to the fluorescence of europium (excitation filter: 340 nm, emission filter: 615 nm).
(§6) The inhibitors are diluted using solutions with concentrations of less than 20 mM in DMSO, and then prediluted in the caspase buffer. […] The specificity factor for caspase-10 is calculated as the following ratio:

[2] = target: T2, Recombinant human caspase-3 (Homo sapiens, UniProt P42574); test: delayed-time fluorescence caspase inhibition test, caspase-3
T2 sequence (P42574 29-277): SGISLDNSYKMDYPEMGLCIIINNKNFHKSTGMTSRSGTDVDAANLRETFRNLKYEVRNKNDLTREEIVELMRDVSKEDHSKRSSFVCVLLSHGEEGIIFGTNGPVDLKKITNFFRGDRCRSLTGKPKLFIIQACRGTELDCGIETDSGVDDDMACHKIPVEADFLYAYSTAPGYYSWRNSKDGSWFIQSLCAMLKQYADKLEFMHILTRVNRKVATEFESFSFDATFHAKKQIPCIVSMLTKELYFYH
Experimental: as §1, §2
20 μl of this solution are distributed per well of the assay plate. […] The assay is performed with 1 U of enzyme per well, by distributing 20 μl of the diluted solution per well. • The standard inhibitors: The standard inhibitors are dissolved in DMSO to a concentration of 10 mM. They are tested at IC20 and at IC50 on the caspases they inhibit (see following table). The concentrations mentioned in the table are the final concentrations in the assay wells.
as §4
The volumes and the protocol were optimised for automated use.
as §5
The inhibitors are diluted using solutions with concentrations of less than 20 mM in DMSO, and then prediluted in the caspase buffer.

[3] = target: T3, Recombinant human caspase-6 (Homo sapiens, UniProt P55212); test: delayed-time fluorescence caspase inhibition test, caspase-6
T3 sequence (P55212 24-293): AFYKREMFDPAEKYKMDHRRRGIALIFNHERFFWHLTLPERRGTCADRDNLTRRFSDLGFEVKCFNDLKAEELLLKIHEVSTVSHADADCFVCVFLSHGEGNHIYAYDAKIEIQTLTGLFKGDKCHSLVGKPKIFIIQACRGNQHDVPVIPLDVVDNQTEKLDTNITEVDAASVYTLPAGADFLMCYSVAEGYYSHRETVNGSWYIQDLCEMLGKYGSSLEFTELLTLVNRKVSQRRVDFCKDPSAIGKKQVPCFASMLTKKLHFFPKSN
Experimental: as §1, §2, §3, §4, §5, §6

[4] = target: Recombinant human caspase-8 (Homo sapiens, UniProt Q14790); test: delayed-time fluorescence caspase inhibition test, caspase-8
Chain of Recombinant human caspase-8 (Q14790 217-479): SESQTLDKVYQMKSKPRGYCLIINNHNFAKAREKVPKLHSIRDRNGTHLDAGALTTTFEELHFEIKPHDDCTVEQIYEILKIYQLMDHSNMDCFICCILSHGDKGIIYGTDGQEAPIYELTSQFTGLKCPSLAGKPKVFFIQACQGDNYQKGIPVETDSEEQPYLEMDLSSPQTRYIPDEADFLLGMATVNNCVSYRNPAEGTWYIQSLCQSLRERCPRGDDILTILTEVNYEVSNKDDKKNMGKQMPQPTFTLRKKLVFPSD
Experimental: as §1, §2, §3, §4, §5, §6

[5] = target: T4, Recombinant human caspase-9 (Homo sapiens, UniProt P55211); test: delayed-time fluorescence caspase inhibition test, caspase-9
T4 sequence (P55211 1-416): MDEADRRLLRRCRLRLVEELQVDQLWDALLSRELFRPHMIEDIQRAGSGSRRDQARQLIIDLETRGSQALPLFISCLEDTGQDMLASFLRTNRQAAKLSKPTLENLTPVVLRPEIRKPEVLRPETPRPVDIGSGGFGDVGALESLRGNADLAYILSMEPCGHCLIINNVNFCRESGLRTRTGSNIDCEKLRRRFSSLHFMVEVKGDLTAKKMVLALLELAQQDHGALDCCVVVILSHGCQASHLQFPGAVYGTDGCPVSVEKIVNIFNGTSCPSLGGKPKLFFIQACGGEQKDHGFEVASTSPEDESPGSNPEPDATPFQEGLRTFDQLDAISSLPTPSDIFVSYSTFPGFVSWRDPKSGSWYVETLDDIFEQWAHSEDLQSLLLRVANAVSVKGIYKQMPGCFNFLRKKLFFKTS
Experimental: as §1, §2, §3, §4, §5, §6

[6] = target: T5, Recombinant human caspase-10 (Homo sapiens, UniProt Q92851); test: delayed-time fluorescence caspase inhibition test, caspase-10
T5 sequence (Q92851 220-521): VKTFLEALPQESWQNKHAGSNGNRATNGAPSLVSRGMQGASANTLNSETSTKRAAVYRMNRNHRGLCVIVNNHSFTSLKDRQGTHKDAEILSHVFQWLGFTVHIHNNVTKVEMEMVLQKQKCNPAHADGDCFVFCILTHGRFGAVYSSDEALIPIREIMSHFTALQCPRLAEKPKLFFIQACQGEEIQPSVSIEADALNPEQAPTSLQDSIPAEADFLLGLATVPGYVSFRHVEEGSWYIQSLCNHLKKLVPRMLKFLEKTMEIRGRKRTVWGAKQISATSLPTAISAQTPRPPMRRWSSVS
Experimental: as §1, §2, §3, §4, §5, §6

[7] = read-out: IC20 of standard inhibitor

SMILES | IC50 [1] | IC50 [2] | IC50 [3] | IC50 [4] | IC50 [5] | IC50 [6] | also measured
O=S(=O)(NCC1(Cc2ccc(CCOCC3CC3)cc2)CCC1)c1ccc(Cl)cc1Cl [Example 1, 2,4-Dichloro-N-[(1-{4-[2-(cyclopropylmethoxy)ethyl]benzyl}cyclobutyl)methyl]benzenesulfonamide] | > 200 µM | > 200 µM | > 200 µM | > 200 µM | > 200 µM | 0.22 µM | 
COc1ccc(S(=O)(=O)NCC2(Cc3ccc(CCOCC4CC4)cc3)CCC2)cc1 [Example 5, N-[(1-{4-[2-(cyclopropylmethoxy)ethyl]benzyl}cyclobutyl)methyl]-4-methoxy-benzenesulfonamide] | > 200 µM | > 200 µM | > 200 µM | > 200 µM | > 200 µM | 3.59 µM | 
O=S(=O)(NCC1(Cc2ccc(CCSC3CCCC3)cc2)CCC1)c1ccc(Cl)cc1Cl [Example 12, 2,4-dichloro-N-[(1-{4-[2-(cyclopentylthio)ethyl]benzyl}cyclobutyl)methyl]benzenesulfonamide] | > 200 µM | > 200 µM | > 200 µM | > 200 µM | > 200 µM | 0.216 µM | 
CSCCc1ccc(CC2(CNS(=O)(=O)c3ccc(Cl)cc3Cl)CCC2)cc1 [Example 17, 2,4-dichloro-N-[(1-{4-[2-(methylthio)ethyl]benzyl}cyclobutyl)methyl]benzenesulfonamide] | > 200 µM | > 200 µM | > 200 µM | > 200 µM | > 200 µM | 0.214 µM | 
O=S(=O)(NCC1(Cc2ccc(CCS(=O)(=O)C3CCCC3)cc2)CCC1)c1ccc(Cl)cc1Cl [Example 22, 2,4-dichloro-N-[(1-{4-[2-(cyclopentylsulfonyl)ethyl]benzyl}cyclobutyl)methyl]benzenesulfonamide] | > 200 µM | > 200 µM | > 200 µM | > 200 µM | > 200 µM | 0.705 µM | 
CS(=O)(=O)CCc1ccc(CC2(CNS(=O)(=O)c3ccc(Cl)cc3Cl)CCC2)cc1 [Example 27, 2,4-dichloro-N-[(1-{4-[2-(methylsulfonyl)ethyl]benzyl}cyclobutyl)methyl]benzenesulfonamide] | > 200 µM | > 200 µM | > 200 µM | > 200 µM | > 200 µM | 0.235 µM | 
CS(=O)(=O)CCc1ccc(CC2(CNS(=O)(=O)c3cccc4ccccc34)CCC2)cc1 [Example 30, N-[(1-{4-[2-(methylsulfonyl)ethyl]benzyl}cyclobutyl)methyl]naphthalene-1-sulfonamide] | > 200 µM | > 200 µM | > 200 µM | > 200 µM | > 200 µM | 4.46 µM | 
O=S(=O)(NCC1(Cc2ccc(CCO)cc2)CCCC1)c1ccc(Cl)cc1 [Example 33] |  |  |  |  |  |  | IC50 ([1]; read-out: Inhibition IC50 Caspase-2, tested 100 nM to 200 μM, 1% DMSO, 3 h 30 min at room temperature): > 200 µM; IC50 ([2]; read-out: Inhibition IC50 Caspase-3, tested 100 nM to 200 μM, 1% DMSO, 3 h 30 min at room temperature): > 200 µM; IC50 ([3]; read-out: Inhibition IC50 Caspase-6, tested 100 nM to 200 μM, 1% DMSO, 3 h 30 min at room temperature): > 200 µM; IC50 ([4]; read-out: Inhibition IC50 Caspase-8, tested 100 nM to 200 μM, 1% DMSO, 3 h 30 min at room temperature): > 200 µM; IC50 ([5]; read-out: Inhibition IC50 Caspase-9, tested 100 nM to 200 μM, 1% DMSO, 3 h 30 min at room temperature): > 200 µM; IC50 ([6]; read-out: Inhibition IC50 Caspase-10, tested 100 nM to 200 μM, 1% DMSO, 3 h 30 min at room temperature): 1.7 µM
O=S(=O)(NCC1(Cc2ccc(CCO)cc2)CCCC1)c1cccc(Cl)c1 [Example 34] | > 200 µM | > 200 µM | > 200 µM | > 200 µM | > 200 µM | 3.5 µM | 
CC(=O)c1ccc(S(=O)(=O)NCC2(Cc3ccc(CCO)cc3)CCCC2)cc1 [Example 35] | > 200 µM | > 200 µM | > 200 µM | > 200 µM | > 200 µM | 2.88 µM | 
CS(=O)(=O)c1ccc(S(=O)(=O)NCC2(Cc3ccc(CCO)cc3)CCCC2)cc1 [Example 36] | > 200 µM | > 200 µM | > 200 µM | > 200 µM | > 200 µM | 9.66 µM | 
CSc1ccc(S(=O)(=O)NCC2(Cc3ccc(CCO)cc3)CCCC2)cc1 [Example 43] | > 200 µM | > 200 µM | > 200 µM | > 200 µM | > 200 µM | 5.12 µM | 
O=S(=O)(NCC1(Cc2ccc(CCO)cc2)CCCC1)c1ccc(Cl)c(Cl)c1 [Example 45] | > 200 µM | > 200 µM | > 200 µM | > 200 µM | > 200 µM | 0.297 µM | 
O=S(=O)(NCC1(Cc2ccc(CCO)cc2)CCCC1)c1ccc(Cl)cc1Cl [Example 46] | > 200 µM | > 200 µM | > 200 µM | > 200 µM | > 200 µM | 0.179 µM | 
COc1ccc(S(=O)(=O)NCC2(Cc3ccc(CCO)cc3)CCCC2)cc1 [Example 47] | > 200 µM | > 200 µM | > 200 µM | > 200 µM | > 200 µM | 5.51 µM | 
O=S(=O)(NCC1(Cc2ccc(CCO)cc2)CCCC1)c1ccc(C(F)(F)F)cc1 [Example 49] | > 200 µM | > 200 µM | > 200 µM | > 200 µM | > 200 µM | 3.14 µM | 
O=S(=O)(NCC1(Cc2ccc(CCO)cc2)CCCC1)c1cccc(C(F)(F)F)c1 [Example 50] | > 200 µM | > 200 µM | > 200 µM | > 200 µM | > 200 µM | 3.16 µM | 
COC(=O)C[C@H](NC(=O)[C@H](C)NC(=O)[C@@H](NC(=O)[C@H](CC(=O)OC)NC(=O)OCc1ccccc1)C(C)C)C(=O)CF [z- DVAD - fmk, reference compound] (Cbz-D(OMe)VAD(OMe)-CH2F) |  |  |  |  |  |  | IC20 [1, 7]: 3 µM
CC[C@H](C)[C@H](NC(=O)OCc1ccccc1)C(=O)N[C@@H](CCC(=O)OC)C(=O)N[C@H](C(=O)N[C@@H](CC(=O)OC)C(=O)CF)[C@@H](C)O [z- IETD - fmk, z-IE(OMe)TD(OMe)-fmk, reference compound] (Cbz-IE(OMe)TD(OMe)-CH2F) |  |  |  |  |  |  | IC20 [4, 7]: 1.5 µM; IC20 [6, 7]: 0.08 µM
CC[C@H](C)[C@H](NC(=O)[C@H](CCC(=O)OC)NC(=O)[C@@H](NC(=O)OCc1ccccc1)C(C)C)C(=O)N[C@@H](CC(=O)OC)C(=O)CF [z- VEID - fmk, z-VE(OMe)ID(OMe)-fmk, reference compound] (Cbz-VE(OMe)ID(OMe)-CH2F) |  |  |  |  |  |  | IC20 [3, 7]: 3 µM
COC(=O)CC[C@H](NC(=O)[C@H](CC(C)C)NC(=O)OCc1ccccc1)C(=O)N[C@@H](Cc1c[nH]cn1)C(=O)N[C@@H](CC(=O)OC)C(=O)CF [z-LEHD - fmk, z-LE(OMe)HD(OMe)-fmk, reference compound] (Cbz-LE(OMe)HD(OMe)-CH2F) |  |  |  |  |  |  | IC20 [5, 7]: 0.2 µM
